This note sets out measurements from BindingDB's records for doi:10.7270/Q2SJ1J25 (Burnham Center For Chemical Genomics, 2010).

By EC50 is commonly meant the concentration at which the effect is half-maximal. A higher EC50 goes with a less potent agent.

The assay deals with Alkaline phosphatase, placental type (Homo sapiens, UniProt P05187). The experiment in a line: PLAP enzyme activators, dose response, mouse IAP activator project, biochemical, uHTS hits (AID 488878).
Alkaline phosphatase, placental type, sequence (P05187 whole entry, looked up): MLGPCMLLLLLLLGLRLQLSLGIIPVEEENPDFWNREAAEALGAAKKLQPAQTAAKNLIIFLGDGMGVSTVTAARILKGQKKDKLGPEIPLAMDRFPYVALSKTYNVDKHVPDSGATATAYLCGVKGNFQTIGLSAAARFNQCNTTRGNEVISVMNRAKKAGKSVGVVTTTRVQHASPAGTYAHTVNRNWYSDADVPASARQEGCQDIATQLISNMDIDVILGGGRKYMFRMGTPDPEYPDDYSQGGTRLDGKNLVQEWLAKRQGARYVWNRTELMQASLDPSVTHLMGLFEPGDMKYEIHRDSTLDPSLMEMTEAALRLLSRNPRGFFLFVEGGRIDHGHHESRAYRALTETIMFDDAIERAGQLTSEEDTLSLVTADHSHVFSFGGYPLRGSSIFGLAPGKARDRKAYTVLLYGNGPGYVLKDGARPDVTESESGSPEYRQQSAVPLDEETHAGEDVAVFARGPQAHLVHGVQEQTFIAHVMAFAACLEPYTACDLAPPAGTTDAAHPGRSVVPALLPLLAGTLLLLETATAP
`CN(CCO)c1ccc(CN=Nc2ccc([N+](=O)[O-])cc2S(=O)(=O)Nc2ccccc2C(=O)O)cc1` yielded a half-maximal effective concentration (EC50) of 26 µM.

`O=C(NN=CC1=CC(=O)C(=O)CC1)NN=CC1=CC(=O)C(=O)CC1` [1,3-bis[[(Z)-(3-hydroxy-4-oxocyclohexa-2,5-dien-1-ylidene)methyl]amino]urea] returned a concentration for a half-maximal effect (EC50) of 29.6 µM.

Consider `O=C1CC(=O)c2c(O)cc(O)c(O)c2C1=O` [4,5,7,8-tetrahydroxy-1,2-naphthoquinone], for which the concentration giving a half-maximal response (EC50) is greater than 100 µM.

Take `O=c1ccc2cc3c([nH]c4ccc(Br)cc43)oc-2c1O` [9-bromo-4-hydroxy-6H-[1]benzopyrano[2,3-b]indol-3-one]: the EC50 turned out to be 24.1 µM.

The compound `Oc1ccc(CN=Nc2cc(N3CCCC3)nc(N3CCCC3)n2)cc1O` [(4Z)-4-[[2-(2,6-dipyrrolidin-1-ylpyrimidin-4-yl)hydrazinyl]methylidene]-2-hydroxycyclohexa-2,5-dien-1-one] gave an EC50 greater than 100 µM.

`C#CCOCCOCCOCCNc1nc(N2CCN(C(=O)CCCCCCCCCCNC(=O)Cn3cc(CCCCCN)nn3)CC2)nc(N2CCN(C(=O)CCCCCCCCCCNC(=O)Cn3cc(C[C@@H](C)O)nn3)CC2)n1` [KG-TG] showed an EC50 greater than 100 µM.

With `C#CCOCCOCCOCCNc1nc(N2CCN(C(=O)CCCCCCCCCCNC(=O)[C@@H](CCC(=O)O)n3cc(CCCCCN)nn3)CC2)nc(N2CCN(C(=O)CCCCCCCCCCNC(=O)[C@H]([C@@H](C)CC)n3cc(CCCCCN)nn3)CC2)n1` [KI-KE], the concentration giving a half-maximal response (EC50) is greater than 100 µM.

In turn, `Nc1c(/C=C2/C=CC(=O)C(O)=C2)c(=O)nc2sc(CC(=O)N3CCCCC3)nn12` [MLS001139223] came in with a 50% effective concentration (EC50) of 23.5 µM.

Consider `Nc1c(/C=C2/C=CC(=O)C(O)=C2)c(=O)nc2sc(CC(=O)N3CCCC3)nn12` [MLS001139292], for which the EC50 came to 9.83 µM.

Compound `Cc1cc(=O)[nH]c(N=NCc2ccc(O)c(O)c2)n1` [MLS001194906] gave an EC50 of 65.7 µM.

In turn, `CS(=O)(=O)c1ccc2c(c1)sc1nc(=O)c(/C=C3/C=CC(=O)C(O)=C3)c(N)n12` [SMR000415838] had a concentration for a half-maximal effect (EC50) of 83.5 µM.

Compound `O=C1C=CC(/C=C/c2nc(O)c([N+](=O)[O-])c(=O)[nH]2)C=C1O` (stereo not drawn) [SMR000524347] gave an EC50 greater than 100 µM.

On to `C[C@@H]1O[C@@H](O[C@H]2[C@H](O)[C@@H](O)[C@H](Oc3c(-c4ccc(O)c(O)c4)oc4cc(O)cc(=O)c-4c3O)O[C@@H]2CO)[C@H](O)[C@H](O)[C@H]1O` [quercetin-3-rham(4)-gluc], for which a half-maximal response (EC50) required 22.6 µM.
